# US11964984B2, “TXNIP-TRX complex inhibitors and methods of using the same” (CITY OF HOPE, priority 2020, dated 2024)
# Key:
# [1] = tested on: TXNIP mRNA; assay: TXNIP mRNA levels in murine MIN6 pancreatic beta cells (RT-PCR); format: cell-based, mouse; conditions: 25 mM glucose, 72 hours
# Procedure: FIGS. 4A-4B. […] MIN6 cells were cultured under 25 mM glucose with C30 and C38 at the indicated concentrations for 72 hours. Total RNA was prepared. RT-PCR was performed and data shown are the mean±SEM from triplicates. Statistical analysis was performed for each column vs. HG DMSO using one-way ANOVA: *p<0.0001. […] MIN6 cells were cultured under 25 mM glucose and treated with C30 and C38 at the indicated concentrations for 72 hours. Total RNA was prepared. RT-PCR was performed and data shown are the mean±SEM from triplicates. Statistical analysis was performed for each column vs. HG DMSO using one-way ANOVA: *p<0.0001.
# To ascertain the relevance to pancreatic beta cells, we tested the effects of the lead compounds on key target gene mRNA levels in murine MIN6 pancreatic beta cells.
# RNA extraction and quantitative RT-PCR. RNA was extracted using the Direct-zol™ RNA MiniPrep Plus (Zymo Research). Reverse transcription of RNA samples into cDNA was performed using the GeneAmp RNA PCR Kit (Applied Biosystems), dNTP (from Roche Applied Science), Rnase inhibitor, MULV Reverse Transcriptase and Random hexamers reagent (all from Invitrogen). Diluted cDNA was quantified using real-time PCR performed with Power SYBR Green qPCR MasterMix (Applied Biosystem) and 7500 real-time PCR system (Applied Biosystems). The HPRT1 gene was used as an internal control.
# [2] = tested on: SOD1 mRNA; assay: SOD1 mRNA in primary human pancreatic islets under 25 mM glucose (RT-PCR); format: cell-based; conditions: human pancreatic islets (500 IEQ), 2.5 uM, 48 h
# Procedure: FIGS. 12A-12B. […] Human pancreatic islets (500 IEQ) were cultured with PIM(R) (Prodo Labs) medium under 25 mM glucose with 2.5 uM of the indicated compounds for 48 h. Total RNA was collected. RT-PCR was performed in triplicate and data shown are the mean±SEM. Statistical analysis was performed using one-way ANOVA: *p<0.0001. […] Human pancreatic islets (500 IEQ) were cultured with PIM(R) (Prodo Labs) under 25 mM glucose with 2.5 uM of the indicated compounds for 48 h. Total RNA was collected. RT-PCR was performed in triplicate and data shown are the mean+SEM. Statistical analysis was performed using one-way ANOVA: *p<0.0001.
# Testing lead compounds in human pancreatic islets. To further explore the effects of the lead compounds as possible therapies in diabetes, we conducted translational studies in primary human pancreatic islets (obtained from the City of Hope islet isolation center).
# RNA extraction and quantitative RT-PCR. RNA was extracted using the Direct-zol™ RNA MiniPrep Plus (Zymo Research). […] Diluted cDNA was quantified using real-time PCR performed with Power SYBR Green qPCR MasterMix (Applied Biosystem) and 7500 real-time PCR system (Applied Biosystems). […]
# [3] = tested on: TXNIP mRNA; assay: TXNIP expression in murine kidneys after oral dosing (RT-PCR); format: in vivo, C57BL/6 mice; conditions: 90 mg/kg oral gavage daily for five days, 96 hr after last dose
# Procedure: FIG. 17. Compounds C30 and C38 reduce TXNIP expression in murine kidneys. Twelve male C57BL/6 mice were divided into three groups (vehicle, C30 and C38, 4/group). They received 90 mg/kg dose of compounds daily for five consecutive days. Compounds were given through oral gavage and mice were humanely euthanized 96 hr after the last drug administration. Kidneys were collected for total RNA preparation. RT-PCR was performed in triplicate and data shown are the mean±SEM. Statistical analysis was performed using one-way ANOVA: *p<0.05.
# The effects of compounds C30 and C38 at single high dose of 90 mg/kg. Twelve male mice were divided into three groups: 1) Control group (4 mice), 2) compound C30 (4 mice) and 3) compound C38 (4 mice). By oral gavage, animals were given 90 mg/kg of agent daily for 5 consecutive days (vehicle: 30% Solutol in saline). Mice were weighed every day during the treatment period. They were humanely euthanized 96 hours after the last dose. Tissues including the pancreas, liver and kidneys were collected (snap frozen in liquid nitrogen) for RNA extraction. […] Those given compound C30 lost ˜5% of body weight (FIG. 15).
# Expression of TXNIP in vivo in treated mice.
# [4] = tested on: TXNIP mRNA; assay: TXNIP mRNA in CD14+ monocytes from type 2 diabetic donors (RT-qPCR); format: cell-based, human; conditions: CD14+ monocytes of T2D donors, 5 uM, 45 hours, ex vivo
# Procedure: FIG. 20. Several lead compounds suppress TXNIP mRNA in T2D monocytes. CD14^+ monocytes were isolated from T2D patient peripheral blood mononuclear cells (PBMCs) and cultured in RPMI 1640 medium with 5 uM of C30 or C38 for 45 hours. Total RNA was collected. RT-PCR was performed in triplicates and data shown are the mean±SEM. Statistical analysis was performed using one-way ANOVA: *p<0.0001.
# Anti-inflammatory (protective) effects of lead compounds in monocytes isolated from peripheral blood obtained from type 2 diabetic subjects. In accordance with an approved IRB protocol and our published methods, we isolated CD14+ monocytes from the peripheral blood of two donors with documented type 2 diabetes (T2D). These monocytes were cultured in vitro with vehicle, 5 uM C30 or C38, and levels of human TXNIP transcript assessed by RT-qPCR.
SMILES,TXNIP mRNA levels [1],SOD1 mRNA levels [2],RNA expression level of TXNIP in kidneys [3],expression of TXNIP [4]
COc1cc(N2CC[C@@H](c3ccc4ccccc4c3)[C@H](O)C2)nc(N)n1 [Compound C30],decreased TXNIP mRNA levels,does not alter SOD1 mRNA levels,reduced,can inhibit the expression of TXNIP
c1ccc(CCNc2ncnc3c2oc2ccccc23)cc1 [Compound C38],decreased TXNIP mRNA levels,does not alter SOD1 mRNA levels,reduced,can inhibit the expression of TXNIP
